From PubChem BioAssay AID330 (DTP/NCI, 2004)
“And” between values parts separate entries of the source, which are not always exact repeats. Equal entries are not always repeated. Inconclusive results and toxic doses are left out. Rule for the calls: active = survival T/C of 150% or more; inactive = T/C below 125% in these data.

System: P388 leukemia ip, CD2F1 mice, survival T/C
Experiment: NCI In Vivo Anticancer Drug Screen. Data for tumor model P388 Leukemia (intraperitoneal) in CD2F1 (CDF1) mice
Conditions: endpoint: median survival time, higher = longer survival
Summary of the method: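 Mice carrying the transplanted tumor received test compound or vehicle. Survival was recorded in each group, and the value is the treated-group measurement divided by that of the vehicle-treated control group.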

[1] = dose: 50.0 mg/kg/injection, schedule: Q01DX005 (ip), vehicle: Klucel (hydroxypropylcellulose) (HPC)
[2] = dose: 100.0 mg/kg/injection, schedule: Q01DX005 (ip), vehicle: Klucel (hydroxypropylcellulose) (HPC)
[3] = dose: 50.0 mg/kg/injection, schedule: Q01DX009 (ip), vehicle: saline
[4] = dose: 100.0 mg/kg/injection, schedule: Q01DX009 (ip), vehicle: saline
[5] = dose: 50.0 mg/kg/injection, schedule: Q01DX009 (ip), vehicle: saline with Tween-80
[6] = dose: 100.0 mg/kg/injection, schedule: Q01DX009 (ip), vehicle: saline with Tween-80
[7] = dose: 200.0 mg/kg/injection, schedule: Q01DX009 (ip), vehicle: saline with Tween-80
[8] = dose: 400.0 mg/kg/injection, schedule: Q01DX009 (ip), vehicle: saline with Tween-80
[9] = dose: 100.0 mg/kg/injection, schedule: Q04DX003 (ip), vehicle: saline
[10] = dose: 200.0 mg/kg/injection, schedule: Q04DX003 (ip), vehicle: saline
[11] = dose: 400.0 mg/kg/injection, schedule: Q04DX003 (ip), vehicle: saline
[12] = dose: 60.0 mg/kg/injection, schedule: Q01DX005 (ip), vehicle: saline with Tween-80
[13] = dose: 120.0 mg/kg/injection, schedule: Q01DX005 (ip), vehicle: saline with Tween-80
[14] = dose: 240.0 mg/kg/injection, schedule: Q01DX005 (ip), vehicle: saline with Tween-80
[15] = dose: 50.0 mg/kg/injection, schedule: Q04DX003 (ip), vehicle: saline with Tween-80
[16] = dose: 100.0 mg/kg/injection, schedule: Q04DX003 (ip), vehicle: saline with Tween-80
[17] = dose: 200.0 mg/kg/injection, schedule: Q04DX003 (ip), vehicle: saline with Tween-80
[18] = dose: 200.0 mg/kg/injection, schedule: Q01DX005 (ip), vehicle: Klucel (hydroxypropylcellulose) (HPC)

Measured: T/C

O=[N+]([O-])c1ccc(C2CC3COc4ccccc4C3=N2)cc1 (stereo not drawn)
inactive: dose: 18.75 mg/kg/injection, schedule: Q01DX001 (ip), vehicle: Klucel (hydroxypropylcellulose) (HPC) 88 % of control | dose: 37.5 mg/kg/injection, schedule: Q01DX001 (ip), vehicle: Klucel (hydroxypropylcellulose) (HPC) 88 % of control | dose: 75.0 mg/kg/injection, schedule: Q01DX001 (ip), vehicle: Klucel (hydroxypropylcellulose) (HPC) 94 % of control

CCCCOC(C(=O)OCCN(CC)CC)(c1ccccc1)c1ccccc1
inactive: [1] 108 % of control | [2] 100 % of control

CN1CCN(c2ccncc2S(=O)(=O)N2CCCC2)CC1
inactive: [3] 107 % of control | [4] 104 % of control

CC(C)N1C(=O)C(C#N)=C(c2ccccc2)SC1c1ccccc1 (stereo not drawn)
inactive: dose: 3.13 mg/kg/injection, schedule: Q01DX009 (ip), vehicle: saline with Tween-80 104 % of control | dose: 6.25 mg/kg/injection, schedule: Q01DX009 (ip), vehicle: saline with Tween-80 101 % of control | dose: 12.5 mg/kg/injection, schedule: Q01DX009 (ip), vehicle: saline with Tween-80 106 % of control | [5] 94 % of control | [6] 99 % of control

CN(C)C(C)(C)P(=O)(O)O
inactive: [6] 100 % of control | [7] 100 % of control | [8] 100 % of control

O=C([O-])[O-].O=[N+]([O-])O.[Co+3].[NH2-].[NH2-].[NH2-].[NH2-]
inactive: [6] 122 % of control | [7] 113 % of control | [8] 100 % of control

CN(C)/C=C1\CCCCC1=C(C#N)C#N
inactive: [9] 100 % of control | [10] 93 % of control | [11] 95 % of control

Clc1nccc2c1ncn2[Te]n1cnc2c(Cl)nccc21
inactive: dose: 12.5 mg/kg/injection, schedule: Q04DX002 (ip), vehicle: saline 105 % of control | dose: 25.0 mg/kg/injection, schedule: Q04DX002 (ip), vehicle: saline 103 % of control

CCOC1=C(C)C(N(CC)CC)=NS(=O)(=O)c2ccccc21
inactive: dose: 100.0 mg/kg/injection, schedule: Q01DX001 (ip), vehicle: Klucel (hydroxypropylcellulose) (HPC) 99 % of control | dose: 200.0 mg/kg/injection, schedule: Q01DX001 (ip), vehicle: Klucel (hydroxypropylcellulose) (HPC) 103 % of control | dose: 400.0 mg/kg/injection, schedule: Q01DX001 (ip), vehicle: Klucel (hydroxypropylcellulose) (HPC) 98 % of control

O=C1/C(=C/N2CCN(c3ccccc3)CC2)Cc2c(Cl)cccc21
inactive: dose: 100.0 mg/kg/injection, schedule: Q04DX002 (ip), vehicle: Klucel (hydroxypropylcellulose) (HPC) 105 % of control | dose: 200.0 mg/kg/injection, schedule: Q04DX002 (ip), vehicle: Klucel (hydroxypropylcellulose) (HPC) 114 % of control | dose: 400.0 mg/kg/injection, schedule: Q04DX002 (ip), vehicle: Klucel (hydroxypropylcellulose) (HPC) 102 % of control

CC1(C)N=C(N)N=C(N)N1NC(=O)c1cccc(Cl)c1
inactive: dose: 50.0 mg/kg/injection, schedule: Q04DX003 (ip), vehicle: saline 110 % of control | [9] 100 % of control | [10] 105 % of control

COC(=O)c1nc(SC)[nH]c1CC(N)=O
inactive: [12] 101 % of control | [13] 100 % of control | [14] 96 % of control

NC(=O)c1ccc(=O)n(C2OC(CO)C(O)C2O)c1 (stereo not drawn)
inactive: [15] 102 % of control | [16] 102 % of control | [17] 100 % of control | dose: 400.0 mg/kg/injection, schedule: Q04DX003 (ip), vehicle: saline with Tween-80 102 % of control

CSC(=NS(=O)(=O)c1ccc(C)cc1)SC
inactive: [3] 109 % of control | [4] 106 % of control | dose: 200.0 mg/kg/injection, schedule: Q01DX009 (ip), vehicle: saline 113 % of control

CN1CCc2c1cc(-c1ccco1)c1c2N(C)CC1
inactive: [1] 104 % of control | [2] 111 % of control | [18] 107 % of control

C1CCN2CSCCCC2C1 (stereo not drawn)
inactive: dose: 50.0 mg/kg/injection, schedule: Q01DX005 (ip), vehicle: saline 100 % of control | dose: 100.0 mg/kg/injection, schedule: Q01DX005 (ip), vehicle: saline 104 % of control | dose: 200.0 mg/kg/injection, schedule: Q01DX005 (ip), vehicle: saline 111 % of control

CCCCCCNC(N)=NCCCC(N)C(=O)O (stereo not drawn)
inactive: [1] 103 % of control | [2] 102 % of control | [18] 106 % of control

CC1(C)Nc2cc3c(cc2-n2cccc21)oc1ccccc13
inactive: dose: 12.5 mg/kg/injection, schedule: Q01DX005 (ip), vehicle: Klucel (hydroxypropylcellulose) (HPC) 111 % of control | dose: 25.0 mg/kg/injection, schedule: Q01DX005 (ip), vehicle: Klucel (hydroxypropylcellulose) (HPC) 99 % of control | dose: 50.0 mg/kg/injection, schedule: Q01DX005 (ip), vehicle: DMSO 100 % of control | [1] 105 % of control | dose: 100.0 mg/kg/injection, schedule: Q01DX005 (ip), vehicle: DMSO 95 % of control | [2] 101 % of control | dose: 200.0 mg/kg/injection, schedule: Q01DX005 (ip), vehicle: DMSO 96 % of control | [18] 111 % of control | dose: 400.0 mg/kg/injection, schedule: Q01DX005 (ip), vehicle: DMSO 100 % of control | dose: 800.0 mg/kg/injection, schedule: Q01DX005 (ip), vehicle: DMSO 98 % of control

Nc1ccc(NC(=O)c2cc(Cl)cc(Cl)c2O)c(Cl)c1
inactive: [5] 107 % of control | [6] 114 % of control

C=CCc1cc(C(CC)C(CC)c2ccc(OCCN(CC)CC)c(CC=C)c2)ccc1OCCN(CC)CC (stereo not drawn)
inactive: dose: 50.0 mg/kg/injection, schedule: Q01DX005 (ip), vehicle: saline with Tween-80 95 % of control | dose: 100.0 mg/kg/injection, schedule: Q01DX005 (ip), vehicle: saline with Tween-80 98 % of control | dose: 200.0 mg/kg/injection, schedule: Q01DX005 (ip), vehicle: saline with Tween-80 101 % of control

c1cnc2nc3c4ccccc4c4ccccc4c3nc2c1
inactive: [5] 104 % of control and 94 % of control | [6] 104 % of control and 122 % of control and 93 % of control | [7] 101 % of control and 110 % of control and 86 % of control

O=[N+]([O-])c1ccc(S(=O)(=O)Nc2c([N+](=O)[O-])cc([N+](=O)[O-])c3ccccc23)cc1
inactive: [15] 92 % of control | [16] 95 % of control | [17] 105 % of control

CSc1ccnc2ccccc12
inactive: dose: 12.5 mg/kg/injection, schedule: Q01DX009 (ip), vehicle: other 103 % of control | dose: 25.0 mg/kg/injection, schedule: Q01DX009 (ip), vehicle: other 118 % of control | dose: 50.0 mg/kg/injection, schedule: Q01DX009 (ip), vehicle: other 114 % of control

COc1ccc(C(c2cc3c(cc2O)OCO3)N2CCCC2)cc1 (stereo not drawn)
inactive: dose: 60.0 mg/kg/injection, schedule: Q01DX005 (ip), vehicle: Klucel (hydroxypropylcellulose) (HPC) 100 % of control | dose: 120.0 mg/kg/injection, schedule: Q01DX005 (ip), vehicle: Klucel (hydroxypropylcellulose) (HPC) 100 % of control

O=c1c(Cc2c[nH]c3ccccc23)coc2ccccc12
inactive: [12] 100 % of control | [13] 90 % of control | [14] 89 % of control

CC(C)C1(c2ccccc2)C(=O)c2ccccc2C1=O
inactive: [9] 102 % of control | [10] 103 % of control | [11] 105 % of control
